# Literature values, collected in patent publication EP2736496B1, “PHARMACEUTICAL COMPOSITION CONTAINING AN ANTIMUSCARINIC AGENT AND METHOD FOR THE PREPARATION THEREOF” (Pharmathen S.A., priority 2011, dated 2013).
smiles,measurement,value
"Cc1ccc(O)c([C@H](CCN(C(C)C)C(C)C)c2ccccc2)c1 [Tolterodine, (R)-N, N-diisopropyl-3-(2-hydroxy-5-methylphenyl)-3-phenylpropylamine]",water solubility,12 mg/mL
